Experimental data: patent publication US20060281817A1, “Treatment for neurodegenerative diseases” (priority 2005, published 2006)

Legend:
[1] = system: Huntington's disease (HD) mice; test: Rotorod motor function test in HD mice; type: in vivo; details: treated HD mice vs untreated HD mice, day 93 and day 105 after birth
Protocol: This example was carried out as schematically illustrated in FIG. 1.

[2] = system: MN9D cells, vector only (control cells); test: Cell death (propidium iodide, flow cytometry), cells with empty vector; type: cell-based; details: Vector only construct
Excerpt: (§1) Parkinson's disease (PD) is characterized by the presence of aggregates (Lewy bodies) composed of alpha-synculein and other cellular proteins within neurons. (Paleologou; Gandhi) These aggregates are believed to be a critical factor in the death of the neuron and in the etiology of PD (Paleologou; Schrag). Mutated alpha-synuclein, as observed in those individuals with familial PD caused by synculein mutations, causes increased aggregate formation (Paleologou). A cell culture model is used to study alpha-synuclein aggregate formation in vitro. This model was created by using molecular biological techniques to transfect a dopaminergic cell line with DNA constructs that, when expressed, generate large amounts of normal alpha-synuclein (over-expressed) or mutated human alpha synuclein within the cells essentially as described by Perez et al (Perez). […] These cells were then treated with Difluoromethylornithine (DFMO) to test the ability of this agent to reduce cell death.
(§2) Compared to control cells, treatment with DFMO (100-500 uM) increased survival in cells over-expressing alpha synuclein and in cells expressing mutated alpha synuclein by up to 54%.

[3] = system: MN9D cells over-expressing human alpha synuclein (wild type); test: Cell death (propidium iodide, flow cytometry), cells over-expressing alpha synuclein; type: cell-based
Excerpt: as §1, §2

[4] = system: MN9D cells expressing human A53T alpha-synuclein mutant; test: Cell death (propidium iodide, flow cytometry), cells expressing mutated alpha synuclein; type: cell-based; details: Mutated alpha synuclein construct
Excerpt: as §1, §2

[5] = represents % cells rescued by DFMO, 100 um

## NCCC[C@](N)(C(=O)O)C(F)F [DFMO, Alpha-difluoromethylornithine]
[1]
  Rotorod motor function: better
[2]; DFMO-treated
  % Dead Cells (DFMO): 30.2%
[2]; [5]
  Reduction in % dead cells with DFMO: 9.6%
[3]; Alpha-synuclein construct
  % rescue compared to vector control for DFMO treated cells: 54%
[3]; Alpha-synuclein construct, DFMO-treated
  % Dead Cells (DFMO): 29.8%
[3]; Alpha-synuclein construct, represents % cells rescued by DFMO, 100 um
  % Dead Cells minus % DFMO-treated cells (100 um): 15%
[3]; DFMO 100-500 uM, cells over-expressing alpha synuclein and cells expressing mutated alpha synuclein
  Increased survival compared to control cells: up to 54%
[4]
  % rescue compared to vector control for DFMO treated cells: 40%
[4]; DFMO-treated
  % Dead Cells (DFMO): 38.1%
[4]; [5]
  Reduction in % dead cells with DFMO (100 uM): 13.5%
